Reference: article PMC9598311, “Identification of a Small Molecule That Inhibits the Interaction of LPS Transporters LptA and LptC” (Antibiotics, 2022)

T1: LptC (Escherichia coli, UniProt P0ADV9)
T1 construct: synthetic gene in pET-28a, N-terminal 6-His tag, expressed in E. coli BL21(DE3), His-Trap purified
T1 sequence (P0ADV9 1-191): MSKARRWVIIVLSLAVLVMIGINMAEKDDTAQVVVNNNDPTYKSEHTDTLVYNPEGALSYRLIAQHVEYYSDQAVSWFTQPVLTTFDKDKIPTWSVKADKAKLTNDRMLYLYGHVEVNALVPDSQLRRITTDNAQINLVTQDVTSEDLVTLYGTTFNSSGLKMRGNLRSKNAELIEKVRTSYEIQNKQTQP

T2: LptA (Escherichia coli, UniProt P0ADV1)
T2 construct: synthetic gene in pET-28a, N-terminal 6-His tag, expressed in E. coli BL21(DE3), His-Trap purified
T2 sequence (P0ADV1 28-185): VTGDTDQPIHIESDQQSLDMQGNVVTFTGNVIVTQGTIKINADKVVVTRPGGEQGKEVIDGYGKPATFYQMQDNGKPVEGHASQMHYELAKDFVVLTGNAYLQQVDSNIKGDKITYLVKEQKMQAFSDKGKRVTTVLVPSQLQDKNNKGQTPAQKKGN

T3: LptC protein with a 6-His tag at the N-terminal (Escherichia coli) (UniProt P0ADV9)
T3 sequence (P0ADV9 whole entry, looked up): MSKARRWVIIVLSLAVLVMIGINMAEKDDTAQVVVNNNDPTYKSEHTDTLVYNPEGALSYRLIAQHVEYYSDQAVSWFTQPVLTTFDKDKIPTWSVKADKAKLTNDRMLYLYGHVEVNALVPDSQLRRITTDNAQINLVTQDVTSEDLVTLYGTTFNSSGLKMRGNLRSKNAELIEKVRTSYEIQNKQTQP


Experiments:
LptA/LptC = system: T4, LptA/LptC; test: SPR, LptA preincubated with compound passed over immobilized LptC; format: binding, Escherichia coli; settings: inhibition of LptA/LptC protein-protein interaction; LptA 15 ug/mL, compound 0-4 ug/mL, PBST
T4 construct: complex formed on chip: LptC immobilized, LptA in solution; both N-terminal 6-His tagged, expressed in E. coli BL21(DE3)

LptC = molecular target: T1, LptC; test: SPR, LptC immobilized on carboxymethyl dextran chip; format: binding
Description: SPR, LptC immobilized on carboxymethyl dextran chip on LptC

LptA = molecular target: T2, LptA; test: SPR, LptA immobilized on carboxymethyl dextran chip; format: binding
Description: SPR, LptA immobilized on carboxymethyl dextran chip on LptA

[1] = molecular target: T3, LptC protein with a 6-His tag at the N-terminal (Escherichia coli); test: SPR; Reichert SPR system; LptC immobilised on a mixed self-assembled monolayer (SAM) sensor chip; LptA 0.164 µM to 2.624 µM in PBST (0.01 M Na Phosphate, 0.15 M NaCl, 0.05% Tween 20) passed over; regeneration 1 M NaCl 90 s; TraceDrawer 1.7.1

Kd (LptC) [µM] | Kd (LptA) [µM] | Kd [1] [µM] | koff [1] [s⁻¹] | kon [1] [M⁻¹ s⁻¹] | Molecule | SPR, LptA preincubated with compound passed over immobilized LptC (LptA/LptC)
32.6 | 4.67 |  |  |  | CN(C)c1ccc(/C=C/c2cc(C(C)(C)C)[o+]c(C(C)(C)C)c2)cc1 [IMB-0042] | Compound IMB-0042 blocked LptA/LptC interaction.
 |  | 2.28 | 0.385 | 169000 | LptA protein with a 6-His tag at the N-terminal (natural protein) VTGDTDQPIHIESDQQSLDMQGNVVTFTGNVIVTQGTIKINADKVVVTRPGGEQGKEVIDGYGKPATFYQMQDNGKPVEGHASQMHYELAKDFVVLTGNAYLQQVDSNIKGDKITYLVKEQKMQAFSDKGKRVTTVLVPSQLQDKNNKGQTPAQKKGN | 
